# Results published in US5338550A, “Stereoisomer therapy” (priority 1992, dated 1994).
# Tests used:
# [1] = Density (bulk, tapped, tablet); type: physicochemical
# Description: Next, the granulations are fed to a Manesty layer press fitted with two hoppers, one hopper is filled with the slow-layer granulation, the other hopper is filled with the fast-layer granulation. A bilayer tablet dosage form is then compressed by first forming a 690 mg second layer, then a 230 mg first layer is pressed in release retaining relation to the second layer. The first layer and second layers are pressed together under a pressure head of two tons. This manufacturing process produces the bilayer dosage form. […] The final composition of the second layer comprises 58 wt % racemic (±) ibuprofen, 15 wt % hydroxypropylmethylcellulose having a 242,000 molecular weight, 25 wt % hydroxypropylmethylcellulose having a 9,200 molecular weight and 2 wt % stearic acid.
# Crystal lattice energy = type: physicochemical
bulk density [1],tablet density [1],tapped density [1],solubility (physchem; artificial gastric juice),solubility (physchem; artificial intestinal juice),solubility (physchem; water),crystal lattice energy (Crystal lattice energy),Structure (SMILES)
0.328 g/cc,1.052 g/cc,0.483 g/cc,79 µg/mL,5910 µg/mL,82 µg/mL,117 joules/g,CC(C)Cc1ccc(C(C)C(=O)O)cc1 (racemic) [racemic ibuprofen]
0.277 g/cc,1.038 g/cc,0.391 g/cc,131 µg/mL,6980 µg/mL,134 µg/mL,90.3 joules/g,CC(C)Cc1ccc([C@H](C)C(=O)O)cc1 [S(+) ibuprofen]
